A word on the IC50: it is the concentration that inhibits the measured activity by half. One may read the EC50 as the midpoint of the concentration-response curve. Broadly, the CC50 is the concentration giving 50% cytotoxicity. Broadly, the AC50 is the concentration at which the activity in the assay is half-maximal.

The structures appear in SMILES notation. The source made the active and inactive calls. A value given as a limit tells only on which side of the number the result lay.

Targets include Cytochrome P450 2D6 (Homo sapiens, UniProt P10635); Cytochrome P450 3A4 (Homo sapiens, UniProt P08684); Cytochrome P450 2C9 (Homo sapiens, UniProt P11712).
Series [1] concerns the target Intestinal-type alkaline phosphatase (Mus musculus, UniProt P24822). Nature of the series: PubChem AID 488785. In kind it is functional.
The target of series [2] is T1, Alkaline phosphatase, tissue-nonspecific isozyme (Homo sapiens, UniProt P05186).
T1 sequence (P05186 whole entry): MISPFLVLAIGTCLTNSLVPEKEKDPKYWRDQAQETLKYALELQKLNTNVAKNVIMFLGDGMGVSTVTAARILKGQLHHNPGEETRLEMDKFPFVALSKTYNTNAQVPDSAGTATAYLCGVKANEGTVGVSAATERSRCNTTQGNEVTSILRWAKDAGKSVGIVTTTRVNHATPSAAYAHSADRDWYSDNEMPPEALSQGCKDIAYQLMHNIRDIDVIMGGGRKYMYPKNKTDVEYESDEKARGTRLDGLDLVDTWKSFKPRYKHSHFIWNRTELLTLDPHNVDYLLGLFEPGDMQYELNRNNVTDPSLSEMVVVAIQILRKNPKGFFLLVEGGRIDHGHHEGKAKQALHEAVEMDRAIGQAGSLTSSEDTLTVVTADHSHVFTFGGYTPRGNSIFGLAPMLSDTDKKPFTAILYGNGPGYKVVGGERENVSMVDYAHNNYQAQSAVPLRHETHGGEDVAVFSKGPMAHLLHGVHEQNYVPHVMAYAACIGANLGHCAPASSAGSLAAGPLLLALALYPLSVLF
Briefly: TNAP enzyme inhibition by screening hits, dose response, selectivity assay for mouse IAP inhibitor project, biochemical, human TNAP, uHTS hits (AID 488906). It is filed as functional.

For series [3], the target named is Intestinal-type alkaline phosphatase (Homo sapiens, UniProt P09923). Nature of the series: inhibition of human intestinal alkaline phosphatase – biochemical, dose response (AID 488876). In kind it is functional.
The target in series [4] is T2, Delta-type opioid receptor (Homo sapiens, UniProt P41143). Briefly: HTS Image-Based Screen for Antagonists of the DOR Receptor. [Related pubchem assays (depositor defined):AID1777, AID1785, AID1786, AID2133]. In kind it is functional.
T2 sequence (P41143 whole entry): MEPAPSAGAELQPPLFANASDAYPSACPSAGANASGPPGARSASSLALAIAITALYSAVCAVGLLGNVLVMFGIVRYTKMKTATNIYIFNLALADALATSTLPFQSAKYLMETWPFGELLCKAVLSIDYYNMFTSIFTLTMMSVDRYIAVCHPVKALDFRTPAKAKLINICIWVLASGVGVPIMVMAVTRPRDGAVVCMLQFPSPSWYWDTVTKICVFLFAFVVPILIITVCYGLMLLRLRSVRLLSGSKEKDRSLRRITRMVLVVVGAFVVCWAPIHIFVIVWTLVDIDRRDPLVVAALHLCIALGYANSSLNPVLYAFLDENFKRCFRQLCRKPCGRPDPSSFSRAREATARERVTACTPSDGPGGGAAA
Series [5] is described as follows: luciferase reporter signal suppression in cells – H4 neuroglioma cells, luminescence, dose response (AID 1990). In kind it is functional, cell-based. For orientation: A reporter such as luciferase makes a cellular process visible.
Another series concerns the target Mu-type opioid receptor (Homo sapiens, UniProt P35372). Briefly: HTS Image-Based Screen for Agonists of the MOR Receptor. [Related pubchem assays (depositor defined):AID1777, AID1785, AID1786, AID2133]. It is filed as functional.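 Also: imaging of beta-arrestin GFP recruitment into spots after receptor activation.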
For series [6], the target named is T2, Delta-type opioid receptor. Briefly: HTS Image-Based Screen for Agonists of the DOR Receptor. [Related pubchem assays (depositor defined):AID1777, AID1786, AID2133]. It is filed as functional.
The subject of series [7] is BJ. Nature of the series: BJ-TERT fibroblast viability loss – cell-based, RAS-independent, luminescence, dose response (AID 1933). It is filed as functional. Conditions: Homo sapiens.
Series [8] in a line: Luminescence Cell-Based Dose Response HTS to Identify Inhibitors of 5'UTR Stem-Loop Driven Prion Protein mRNA Translation in H4 Neuroglioblastoma Cells. [Related pubchem assays: 1827 (Project Summary), 1813 (Primary HTS)]. It is filed as functional.
The nature of series [9]: alpha-synuclein stem-loop luciferase translation blockers – H4 neuroglioma cells, luminescence, confirmation (AID 1988). It is filed as functional, cell-based.
Series [10] concerns BJ. Briefly: cells. Particulars: Homo sapiens. It is filed as functional, cell-based.
The target in series [11] is T3, Kappa-type opioid receptor (Homo sapiens, UniProt P41145). It is filed as functional.
T3 sequence (P41145 whole entry): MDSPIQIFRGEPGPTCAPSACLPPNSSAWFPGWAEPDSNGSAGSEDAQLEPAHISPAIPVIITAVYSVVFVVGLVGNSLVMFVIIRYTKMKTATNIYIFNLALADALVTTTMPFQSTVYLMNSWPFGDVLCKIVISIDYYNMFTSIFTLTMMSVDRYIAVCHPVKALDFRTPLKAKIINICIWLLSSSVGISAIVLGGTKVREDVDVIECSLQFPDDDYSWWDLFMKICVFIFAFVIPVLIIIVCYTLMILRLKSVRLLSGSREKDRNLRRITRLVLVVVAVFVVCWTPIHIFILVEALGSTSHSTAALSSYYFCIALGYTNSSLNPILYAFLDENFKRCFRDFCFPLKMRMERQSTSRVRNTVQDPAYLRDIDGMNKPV
Series [12] has as its target T3, Kappa-type opioid receptor. It is filed as functional. This is another data set of the same source.
Series [13] relates to BJ. Briefly: BJ-TERT-LT-ST fibroblast viability loss – cell-based, RAS-independent, luminescence, dose response (AID 1935).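 Also: BJ fibroblasts immortalized with TERT plus LT and ST oncogenes.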 In kind it is functional. Conditions: Homo sapiens.
Series [14] in a line: DRD fibroblast viability loss – cell-based, non-viral oncogenic, luminescence, dose response (AID 1934). It is filed as functional. Particulars: Homo sapiens.
A short description of series [15]: THP-1 cell cytotoxicity, dose response, cytotoxicity control for non-replicating M. tuberculosis project (AID 489025). In kind it is functional.
Series [16] in a line: HepG2 cell cytotoxicity, dose response, cytotoxicity control for non-replicating M. tuberculosis project (AID 489018). In kind it is functional. Particulars: Mycobacterium tuberculosis.
Series [17] in a line: Vero E6 cell cytotoxicity, dose response, cytotoxicity control for non-replicating M. tuberculosis project, secondary assay (AID 492998). In kind it is functional, VeroE6. Conditions: Vero C1008.
Another series in a line: cells. In kind it is functional.
The next series has as its system INS1. Nature of the series: INS-1E survival protection against cytokine death – cell-based, luminescence, retest, dose response (AID 449756).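 Also: cell death triggered by IL-1 beta plus TNF-alpha plus IFN-gamma mixture; protective hits raise ATP signal compared with cytokine alone wells.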 In kind it is functional. Particulars: Rattus norvegicus.
In series [18] the target is 26S proteasome non-ATPase regulatory subunit 14 (Homo sapiens, UniProt O00487). Briefly: inhibition of proteasome subunit RPN11 – biochemical, fluorescence polarization, uHTS hits, confirmation (AID 602368). In kind it is functional. On the technique in general: In fluorescence polarisation assays a small probe gives low polarisation when free and higher when bound to something large.
26S proteasome non-ATPase regulatory subunit 14, sequence (O00487 whole entry): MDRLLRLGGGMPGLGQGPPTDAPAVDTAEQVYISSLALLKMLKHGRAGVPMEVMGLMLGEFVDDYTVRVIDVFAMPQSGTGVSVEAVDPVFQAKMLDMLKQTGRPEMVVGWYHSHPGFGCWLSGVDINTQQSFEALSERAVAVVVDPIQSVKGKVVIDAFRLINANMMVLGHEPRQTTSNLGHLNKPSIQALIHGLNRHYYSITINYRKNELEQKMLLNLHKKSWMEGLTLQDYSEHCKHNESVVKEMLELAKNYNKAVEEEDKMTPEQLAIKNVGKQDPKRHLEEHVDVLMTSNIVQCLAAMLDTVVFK

For series [19], the target named is 72 kDa type IV collagenase (Homo sapiens, UniProt P08253). Nature of the series: Dose Response validation of uHTS RPN11 inhibitor hits using a MMP-2 Fluorescence assay. In kind it is functional.
72 kDa type IV collagenase, sequence (P08253 whole entry): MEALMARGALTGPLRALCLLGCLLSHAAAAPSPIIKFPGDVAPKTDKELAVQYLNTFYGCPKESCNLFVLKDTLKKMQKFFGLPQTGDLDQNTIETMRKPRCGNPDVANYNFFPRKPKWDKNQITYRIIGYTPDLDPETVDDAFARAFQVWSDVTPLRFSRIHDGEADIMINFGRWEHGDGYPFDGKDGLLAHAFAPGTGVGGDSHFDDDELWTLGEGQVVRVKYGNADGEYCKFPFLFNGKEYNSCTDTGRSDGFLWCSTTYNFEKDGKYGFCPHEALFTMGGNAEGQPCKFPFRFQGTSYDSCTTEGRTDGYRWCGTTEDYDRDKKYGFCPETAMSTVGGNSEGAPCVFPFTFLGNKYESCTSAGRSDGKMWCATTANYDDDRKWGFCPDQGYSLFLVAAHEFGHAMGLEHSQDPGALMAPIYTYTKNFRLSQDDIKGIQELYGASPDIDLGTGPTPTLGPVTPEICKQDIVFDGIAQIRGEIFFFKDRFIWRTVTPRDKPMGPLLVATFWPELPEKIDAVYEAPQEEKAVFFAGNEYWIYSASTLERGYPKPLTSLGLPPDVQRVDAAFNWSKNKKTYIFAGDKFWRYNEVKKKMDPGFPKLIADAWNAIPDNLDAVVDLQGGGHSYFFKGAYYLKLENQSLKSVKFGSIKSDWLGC
For a further series, the target named is Prothrombin (Bos taurus, UniProt P00735). Nature of the series: thrombin protease inhibitors – biochemical, fluorescence polarization, uHTS hits, dose response (AID 602369). In kind it is functional.
The nature of series [20]: cytotoxicity toward MDA-MB-231 breast cancer cells – cell-based, CellTiter-Glo luminescence, cherry-pick, cytotoxicity control for RAD54 inhibitor project, dose response (AID 651692). In kind it is functional.
In series [21] the target is DNA repair and recombination protein RAD54-like (Homo sapiens, UniProt Q92698). Nature of the series: RAD54 Holliday junction migration blockers – biochemical, fluorescence, cherry-picked samples, dose series, confirmation (AID 651657). In kind it is functional.
DNA repair and recombination protein RAD54-like, sequence (Q92698 whole entry): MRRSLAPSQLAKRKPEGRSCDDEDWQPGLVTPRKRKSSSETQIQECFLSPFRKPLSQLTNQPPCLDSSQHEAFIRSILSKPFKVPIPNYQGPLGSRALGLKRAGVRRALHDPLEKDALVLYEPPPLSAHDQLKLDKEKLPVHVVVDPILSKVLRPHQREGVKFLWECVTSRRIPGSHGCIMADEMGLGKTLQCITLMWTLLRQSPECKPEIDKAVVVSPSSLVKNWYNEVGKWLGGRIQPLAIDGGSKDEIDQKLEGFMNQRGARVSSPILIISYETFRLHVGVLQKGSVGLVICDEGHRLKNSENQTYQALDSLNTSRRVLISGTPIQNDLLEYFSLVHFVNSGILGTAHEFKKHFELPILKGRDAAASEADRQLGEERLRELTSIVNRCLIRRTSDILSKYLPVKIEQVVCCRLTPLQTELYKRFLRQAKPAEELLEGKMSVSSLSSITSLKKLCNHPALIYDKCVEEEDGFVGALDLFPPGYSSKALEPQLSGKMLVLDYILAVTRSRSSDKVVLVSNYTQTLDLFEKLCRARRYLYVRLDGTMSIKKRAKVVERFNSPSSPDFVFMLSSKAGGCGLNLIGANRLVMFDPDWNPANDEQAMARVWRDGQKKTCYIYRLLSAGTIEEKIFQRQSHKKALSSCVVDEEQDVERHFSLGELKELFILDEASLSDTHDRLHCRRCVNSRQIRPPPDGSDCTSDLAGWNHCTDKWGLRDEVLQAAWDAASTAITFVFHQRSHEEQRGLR
The target in series [22] is Lysine-specific demethylase 4C (Homo sapiens, UniProt Q9H3R0). Nature of the series: inhibition of JMJD2C H3K9me3 demethylation – biochemical, DELFIA europium, cherry-picked samples, dose response (AID 488835). It is filed as functional.
Lysine-specific demethylase 4C, sequence (Q9H3R0 whole entry): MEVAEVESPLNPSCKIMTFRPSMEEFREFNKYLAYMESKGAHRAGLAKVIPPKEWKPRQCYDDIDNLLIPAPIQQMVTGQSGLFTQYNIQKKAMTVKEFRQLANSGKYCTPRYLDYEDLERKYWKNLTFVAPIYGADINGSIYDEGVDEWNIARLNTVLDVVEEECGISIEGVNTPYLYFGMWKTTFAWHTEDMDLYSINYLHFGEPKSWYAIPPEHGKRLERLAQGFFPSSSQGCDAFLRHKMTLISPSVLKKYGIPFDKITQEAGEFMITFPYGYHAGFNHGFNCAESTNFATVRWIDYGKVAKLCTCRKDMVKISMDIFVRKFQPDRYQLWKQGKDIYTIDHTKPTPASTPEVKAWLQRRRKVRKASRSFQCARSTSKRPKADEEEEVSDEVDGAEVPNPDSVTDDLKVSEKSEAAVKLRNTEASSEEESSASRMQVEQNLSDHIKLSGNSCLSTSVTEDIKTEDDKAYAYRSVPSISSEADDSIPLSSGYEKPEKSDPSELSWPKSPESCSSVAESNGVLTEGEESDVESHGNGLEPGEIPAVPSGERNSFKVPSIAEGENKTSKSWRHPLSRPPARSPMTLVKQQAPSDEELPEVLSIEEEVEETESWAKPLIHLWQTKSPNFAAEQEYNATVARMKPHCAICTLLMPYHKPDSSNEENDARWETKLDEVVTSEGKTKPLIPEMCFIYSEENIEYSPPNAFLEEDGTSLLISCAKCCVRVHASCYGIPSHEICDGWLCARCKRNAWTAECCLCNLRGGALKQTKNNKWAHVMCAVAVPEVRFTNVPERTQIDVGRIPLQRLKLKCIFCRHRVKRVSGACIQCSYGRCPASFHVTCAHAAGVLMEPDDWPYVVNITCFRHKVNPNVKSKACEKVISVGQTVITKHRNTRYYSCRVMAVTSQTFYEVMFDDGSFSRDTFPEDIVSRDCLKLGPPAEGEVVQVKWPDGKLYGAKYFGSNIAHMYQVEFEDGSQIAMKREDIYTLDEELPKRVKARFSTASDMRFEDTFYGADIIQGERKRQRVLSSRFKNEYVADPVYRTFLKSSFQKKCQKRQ
Series [23] has as its target T4, Mannose-6-phosphate isomerase (Homo sapiens, UniProt P34949).
T4 sequence (P34949 whole entry): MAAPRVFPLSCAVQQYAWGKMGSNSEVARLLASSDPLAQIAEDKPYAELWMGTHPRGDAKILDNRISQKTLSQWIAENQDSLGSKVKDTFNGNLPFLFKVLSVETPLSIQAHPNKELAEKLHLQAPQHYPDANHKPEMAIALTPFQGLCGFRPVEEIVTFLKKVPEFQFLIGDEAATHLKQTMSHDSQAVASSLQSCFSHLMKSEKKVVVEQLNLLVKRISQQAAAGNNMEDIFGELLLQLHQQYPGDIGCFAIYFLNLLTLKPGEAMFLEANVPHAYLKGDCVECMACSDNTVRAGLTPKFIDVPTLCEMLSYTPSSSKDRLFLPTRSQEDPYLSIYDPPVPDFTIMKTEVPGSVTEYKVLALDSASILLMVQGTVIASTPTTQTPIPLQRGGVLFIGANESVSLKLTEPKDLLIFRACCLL
Briefly: phosphomannose isomerase inhibition – biochemical, fluorescence intensity, confirmation (AID 1535).

The next series addresses Phosphomannomutase 2 (Homo sapiens, UniProt O15305). Nature of the series: Counter screen SAR assay for PMM2 inhibitors via a fluorescence intensity assay. [Related pubchem assays (depositor defined):AID1545, AID1574].
Series [24] can be described thus: restored growth of temperature-sensitive Burl-1 yeast – whole organism, S. cerevisiae, Burl-1 ts mutant, luminescence, counter-screen for SUMOylation pathway inhibitor project, dose response (AID 463199). It is filed as functional. (In general: The purpose of a counterscreen is to sort out artefacts and off-target activity.)
Series [25] has as its system BJ. Briefly: growth inhibition of engineered Ras-driven BJ cells – cell-based, alamar blue fluorescence, cherrypicked samples, dose response (AID 2631).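 Also: confirmatory dose-response assay in RAS-dependent BJ fibroblasts engineered with TERT, LT and ST, with cytotoxicity read by fluorescence.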 In kind it is functional. Particulars: Homo sapiens.
Series [26] has as its system HEK293. Briefly: cells. Conditions: Homo sapiens.
The subject of series [27] is HEK293. Nature of the series: cells. Particulars: Homo sapiens. This is another data set of the same source.
In the next series the target is Cytochrome P450 2C19 (Homo sapiens, UniProt P33261). Nature of the series: Cytochrome panel assay with activity outcomes. Panel member name: p450-cyp2c19 Compounds with AC50 equal or less than 10 uM are considered active. In kind it is functional.
The target in another series is T5, Cytochrome P450 1A2 (Homo sapiens, UniProt P05177).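 Also: PubChem cytochrome P450 panel assay, CYP1A2 panel member.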
T5 sequence (P05177 whole entry): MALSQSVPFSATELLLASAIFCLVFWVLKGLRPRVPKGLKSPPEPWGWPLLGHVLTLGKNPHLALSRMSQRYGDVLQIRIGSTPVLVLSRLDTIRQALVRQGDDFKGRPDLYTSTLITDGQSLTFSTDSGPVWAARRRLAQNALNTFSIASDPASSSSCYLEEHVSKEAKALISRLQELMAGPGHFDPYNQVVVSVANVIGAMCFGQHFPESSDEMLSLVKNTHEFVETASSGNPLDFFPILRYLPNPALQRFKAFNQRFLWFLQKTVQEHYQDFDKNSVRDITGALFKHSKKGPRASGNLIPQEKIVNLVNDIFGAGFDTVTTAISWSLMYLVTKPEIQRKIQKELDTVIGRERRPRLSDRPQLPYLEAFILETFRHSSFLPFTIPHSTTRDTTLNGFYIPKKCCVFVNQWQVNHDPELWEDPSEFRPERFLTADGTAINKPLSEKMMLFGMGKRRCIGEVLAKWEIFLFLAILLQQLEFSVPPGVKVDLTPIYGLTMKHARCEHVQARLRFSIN

Phosphomannomutase 2, sequence (O15305 whole entry): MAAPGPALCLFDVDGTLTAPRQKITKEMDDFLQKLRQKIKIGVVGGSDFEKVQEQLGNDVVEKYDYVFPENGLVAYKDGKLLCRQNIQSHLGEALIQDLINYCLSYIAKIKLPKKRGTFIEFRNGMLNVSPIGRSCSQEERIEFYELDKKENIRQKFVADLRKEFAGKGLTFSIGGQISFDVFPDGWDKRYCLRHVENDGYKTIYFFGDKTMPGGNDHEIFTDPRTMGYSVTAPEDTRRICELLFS
Mu-type opioid receptor, sequence (P35372 whole entry): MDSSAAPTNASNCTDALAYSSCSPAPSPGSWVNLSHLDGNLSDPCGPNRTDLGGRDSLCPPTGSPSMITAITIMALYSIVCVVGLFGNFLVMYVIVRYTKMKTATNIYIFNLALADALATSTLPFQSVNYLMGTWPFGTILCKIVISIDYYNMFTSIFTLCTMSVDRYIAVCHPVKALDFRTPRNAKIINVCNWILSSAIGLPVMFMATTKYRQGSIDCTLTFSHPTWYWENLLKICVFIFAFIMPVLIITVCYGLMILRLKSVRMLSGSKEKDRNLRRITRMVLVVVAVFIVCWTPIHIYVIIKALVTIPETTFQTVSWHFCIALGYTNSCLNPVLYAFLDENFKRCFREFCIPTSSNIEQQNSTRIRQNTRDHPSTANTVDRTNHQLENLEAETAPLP
Cytochrome P450 3A4, sequence (P08684 whole entry): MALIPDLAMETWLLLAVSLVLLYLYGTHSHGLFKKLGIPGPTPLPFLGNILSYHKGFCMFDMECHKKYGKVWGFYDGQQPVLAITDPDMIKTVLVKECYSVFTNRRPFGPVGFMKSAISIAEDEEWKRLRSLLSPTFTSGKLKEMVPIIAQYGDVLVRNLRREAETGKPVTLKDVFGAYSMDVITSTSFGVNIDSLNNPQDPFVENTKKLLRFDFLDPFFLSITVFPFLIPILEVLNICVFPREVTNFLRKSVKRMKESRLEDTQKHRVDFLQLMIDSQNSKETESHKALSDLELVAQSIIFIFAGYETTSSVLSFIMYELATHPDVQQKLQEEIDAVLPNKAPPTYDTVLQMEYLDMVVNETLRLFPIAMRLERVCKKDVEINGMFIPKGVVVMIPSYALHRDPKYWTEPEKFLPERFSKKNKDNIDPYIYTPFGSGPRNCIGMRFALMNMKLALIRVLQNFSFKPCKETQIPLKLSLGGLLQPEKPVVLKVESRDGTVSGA

As for `O=C(CCN1C(=O)/C(=C/c2ccco2)SC1=S)Nc1ccc(O)cc1C(=O)O`, the half-inhibitory concentration (IC50) in series [1] is 1.51 µM (active); in series [2] it was 19.6 µM (active); in series [3], > 100 µM (inactive).
For the compound `COc1cc2ccccc2cc1C(=O)Nc1sc2c(c1C(N)=O)CCN(C(C)C)C2`, the IC50 in series [4] was > 32 µM (inactive); in “cells”, 11.9 µM (active); in series [18], 18.1 µM (active); in [19] it was > 100 µM (inactive); at Prothrombin, 15.1 µM (active). Besides, the EC50 in series [5] is > 120 µM (not active); at Mu-type opioid receptor, > 32 µM (inactive); in [6], > 32 µM (inactive); with BJ [7], 6.33 µM (active); in series [8] it was > 120 µM (not active); in series [9] it was > 120 µM (not active). In addition, the EC50 is 13.6 µM (active) in the series on BJ [10]; 2 µM in series [11]; 14.8 µM in series [12]; 6.85 µM (inconclusive) in the series with BJ [13]; 7.16 µM (active) in [14]. For the same compound, the values for the CC50 in [15], in series [16] and in [17] were 11.6 µM (active), 10.8 µM (active) and 4.6 µM (active), respectively. The AC50 in the series on INS1 is 7.78 µM (active); in [20], 16 µM (active); in series [21], 9.33 µM (active).
For `CCOC(=O)C1=CC(=C2C(=O)N(CC)C(=S)N(CC)C2=O)c2ccccc2O1`, the AC50 in series [22] is 12.2 µM (active).
For the compound `Cc1ccc(/N=c2\ssnc2Cl)c([N+](=O)[O-])c1`, the IC50 in series [23] is 4.44 µM (active); on Phosphomannomutase 2, 96.2 µM (active).
`CC(C)c1cc(C(=O)N/N=C/C(Br)=C/c2ccccc2)[nH]n1`: the EC50 was 29.6 µM (active) in the series with BJ [7]; 4.12 µM (active) in the series on BJ [10]; > 150 µM (inconclusive) in the series on BJ [13]; 5.12 µM (active) in series [14]; 22.2 µM (active) with BJ [25]; > 59.7 µM (inactive) with HEK293 [26]. The EC50 with HEK293 [27] was > 59.7 µM (inactive). In addition, the AC50 in series [24] was 137 µM (active).
`O=C(O)c1cc2ccccc2c(Cc2c(O)c(C(=O)O)cc3ccccc23)c1O` [PAMOIC ACID]: the AC50 result at Cytochrome P450 2C19, on Cytochrome P450 2D6, at Cytochrome P450 1A2, at Cytochrome P450 3A4 and at Cytochrome P450 2C9 was “inactive” in each case.

The values above are taken from ChEMBL document CHEMBL1201862, “PubChem BioAssay data set” (2004).
